1 molecule from PMC10870720, “Lignin bioconversion based on genome mining for ligninolytic genes in Erwinia billingiae QL-Z3” (Biotechnology for Biofuels and Bioproducts, 2024) can be followed below.

The test system of this assay is ELAC_205. As to conditions: laccase; sodium acetate buffer; optimum pH 1.0, 50 °C (kinetic assay conditions not stated separately).

By Km is commonly meant the concentration of substrate that gives half-maximal velocity. For the molecule `CCn1c(=NN=c2sc3cc(S(=O)(=O)O)ccc3n2CC)sc2cc(S(=O)(=O)O)ccc21` [ABTS, 2, 2’-azino-bis (3-ethylbenzothiazoline-6-sulfonic acid)], the Km turned out to be 360 ± 70 µM.
